How the values were obtained:
NSD2 [1] = biological target: T1, NSD2 (Homo sapiens, UniProt O96028); test: Western blotting of NSD2 protein level in H929 cells; format: cell-based
T1 sequence (O96028 1-1365): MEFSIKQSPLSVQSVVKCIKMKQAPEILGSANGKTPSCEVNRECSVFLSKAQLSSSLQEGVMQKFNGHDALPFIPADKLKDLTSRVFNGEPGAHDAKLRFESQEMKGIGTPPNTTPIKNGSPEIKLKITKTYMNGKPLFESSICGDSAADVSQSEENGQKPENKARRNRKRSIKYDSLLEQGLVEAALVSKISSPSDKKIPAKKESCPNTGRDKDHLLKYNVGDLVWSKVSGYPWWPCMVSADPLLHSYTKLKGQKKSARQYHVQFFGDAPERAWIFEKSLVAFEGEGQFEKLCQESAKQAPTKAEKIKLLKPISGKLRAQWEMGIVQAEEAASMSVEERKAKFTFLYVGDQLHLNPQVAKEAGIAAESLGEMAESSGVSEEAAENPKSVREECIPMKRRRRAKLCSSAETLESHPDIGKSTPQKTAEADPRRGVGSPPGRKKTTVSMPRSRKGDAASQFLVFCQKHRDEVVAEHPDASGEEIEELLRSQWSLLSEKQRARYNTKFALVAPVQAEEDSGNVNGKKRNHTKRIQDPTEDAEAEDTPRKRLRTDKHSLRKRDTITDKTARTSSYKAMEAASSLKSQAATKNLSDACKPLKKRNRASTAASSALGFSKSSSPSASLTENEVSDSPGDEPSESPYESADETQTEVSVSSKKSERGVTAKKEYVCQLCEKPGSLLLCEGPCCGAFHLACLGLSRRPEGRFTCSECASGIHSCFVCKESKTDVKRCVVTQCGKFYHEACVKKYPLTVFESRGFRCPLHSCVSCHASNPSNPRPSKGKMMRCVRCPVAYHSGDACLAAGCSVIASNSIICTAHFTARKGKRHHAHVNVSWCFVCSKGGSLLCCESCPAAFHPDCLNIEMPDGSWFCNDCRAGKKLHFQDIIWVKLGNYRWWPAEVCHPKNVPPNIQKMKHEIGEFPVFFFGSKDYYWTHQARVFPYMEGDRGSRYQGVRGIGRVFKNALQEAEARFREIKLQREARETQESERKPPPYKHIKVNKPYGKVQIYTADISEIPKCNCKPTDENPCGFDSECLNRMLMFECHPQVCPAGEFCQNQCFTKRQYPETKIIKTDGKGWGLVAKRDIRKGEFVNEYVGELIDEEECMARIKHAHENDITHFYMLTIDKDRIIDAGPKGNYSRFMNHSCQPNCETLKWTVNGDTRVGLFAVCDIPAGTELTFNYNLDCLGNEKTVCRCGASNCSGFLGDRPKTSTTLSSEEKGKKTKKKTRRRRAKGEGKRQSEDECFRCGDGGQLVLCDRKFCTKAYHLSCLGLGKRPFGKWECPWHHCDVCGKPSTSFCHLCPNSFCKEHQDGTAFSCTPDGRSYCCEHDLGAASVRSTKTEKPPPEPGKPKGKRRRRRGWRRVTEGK

NSD2 [2] = biological target: T1, NSD2; test: Western blotting of NSD2 protein level in KMS11 cells; format: cell-based
NSD2 [3] = biological target: T1, NSD2; test: Western blotting of NSD2 protein level in 293FT cells; format: cell-based; conditions: 293FT cells; for NSD2 degradation: SI Figure S1A
IKZF3 [4] = biological target: T2, IKZF3 (Homo sapiens, UniProt Q96SW2+Q9UKT9); test: Western blotting of IKZF3 protein level in 293FT cells; format: cell-based; conditions: 293FT cells, SI Figure S1A
T2 sequence (Q9UKT9 whole entry): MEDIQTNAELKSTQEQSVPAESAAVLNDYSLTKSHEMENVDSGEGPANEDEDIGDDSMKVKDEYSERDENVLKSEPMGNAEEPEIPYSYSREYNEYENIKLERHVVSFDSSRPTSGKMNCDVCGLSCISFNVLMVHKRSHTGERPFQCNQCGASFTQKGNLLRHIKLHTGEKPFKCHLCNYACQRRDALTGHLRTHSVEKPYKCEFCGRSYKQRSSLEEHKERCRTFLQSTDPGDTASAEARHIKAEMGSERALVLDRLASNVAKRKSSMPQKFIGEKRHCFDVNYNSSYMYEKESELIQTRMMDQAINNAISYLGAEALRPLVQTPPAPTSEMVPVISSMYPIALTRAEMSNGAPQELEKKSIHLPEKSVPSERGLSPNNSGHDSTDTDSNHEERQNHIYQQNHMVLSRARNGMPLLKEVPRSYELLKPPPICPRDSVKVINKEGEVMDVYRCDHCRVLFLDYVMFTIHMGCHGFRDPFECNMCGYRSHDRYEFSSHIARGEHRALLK
T2 sequence (Q96SW2 whole entry): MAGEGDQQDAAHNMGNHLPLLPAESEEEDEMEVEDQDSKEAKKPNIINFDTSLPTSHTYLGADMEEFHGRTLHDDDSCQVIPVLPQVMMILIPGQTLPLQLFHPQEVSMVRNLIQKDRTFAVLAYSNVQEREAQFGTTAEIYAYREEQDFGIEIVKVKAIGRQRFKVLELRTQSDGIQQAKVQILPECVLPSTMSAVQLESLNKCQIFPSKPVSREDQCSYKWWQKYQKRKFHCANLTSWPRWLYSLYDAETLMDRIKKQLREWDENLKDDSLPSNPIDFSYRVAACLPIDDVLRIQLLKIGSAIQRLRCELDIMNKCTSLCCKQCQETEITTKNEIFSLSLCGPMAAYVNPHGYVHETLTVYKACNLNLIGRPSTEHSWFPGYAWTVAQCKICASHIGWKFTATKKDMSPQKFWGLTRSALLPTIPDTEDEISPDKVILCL
T2 sequence (Q16531 whole entry partner): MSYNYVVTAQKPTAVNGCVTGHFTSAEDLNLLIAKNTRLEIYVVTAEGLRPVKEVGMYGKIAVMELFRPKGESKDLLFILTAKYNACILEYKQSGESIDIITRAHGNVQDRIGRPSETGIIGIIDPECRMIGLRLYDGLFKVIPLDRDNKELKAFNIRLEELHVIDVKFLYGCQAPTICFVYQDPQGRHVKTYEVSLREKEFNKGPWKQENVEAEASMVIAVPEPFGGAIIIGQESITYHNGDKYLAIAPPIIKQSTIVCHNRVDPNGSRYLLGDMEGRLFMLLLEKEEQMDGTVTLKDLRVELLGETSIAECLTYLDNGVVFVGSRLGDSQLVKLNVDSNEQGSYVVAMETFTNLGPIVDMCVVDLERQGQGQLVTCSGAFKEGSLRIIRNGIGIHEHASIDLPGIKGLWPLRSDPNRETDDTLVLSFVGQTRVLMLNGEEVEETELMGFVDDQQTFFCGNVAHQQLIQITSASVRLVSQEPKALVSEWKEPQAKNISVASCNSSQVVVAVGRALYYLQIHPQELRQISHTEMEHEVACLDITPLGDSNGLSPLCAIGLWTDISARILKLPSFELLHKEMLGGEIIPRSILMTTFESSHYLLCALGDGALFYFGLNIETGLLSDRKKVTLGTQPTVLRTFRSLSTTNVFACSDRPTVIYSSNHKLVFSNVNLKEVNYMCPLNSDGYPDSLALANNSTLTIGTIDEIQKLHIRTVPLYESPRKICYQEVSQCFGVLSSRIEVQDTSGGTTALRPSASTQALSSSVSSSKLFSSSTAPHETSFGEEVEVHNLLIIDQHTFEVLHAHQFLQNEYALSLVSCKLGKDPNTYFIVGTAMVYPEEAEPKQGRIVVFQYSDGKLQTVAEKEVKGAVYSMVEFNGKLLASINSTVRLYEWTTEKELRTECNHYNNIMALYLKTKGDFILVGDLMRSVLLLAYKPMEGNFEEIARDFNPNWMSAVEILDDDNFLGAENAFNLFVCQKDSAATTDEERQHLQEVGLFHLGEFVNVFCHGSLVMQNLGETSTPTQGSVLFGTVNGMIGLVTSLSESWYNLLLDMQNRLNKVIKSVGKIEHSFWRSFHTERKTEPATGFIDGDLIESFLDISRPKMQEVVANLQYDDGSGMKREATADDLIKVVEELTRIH

GSPT1 [5] = test: Western blotting of GSPT1 protein level in 293FT cells; format: cell-based; conditions: SI Figure S1A
IKZF1 [6] = biological target: T3, IKZF1 (Homo sapiens, UniProt Q13422+Q96SW2); test: Western blotting of IKZF1 protein level in H929 cells; format: cell-based; conditions: 2.5 μM, 72 h
T3 sequence (Q13422 whole entry): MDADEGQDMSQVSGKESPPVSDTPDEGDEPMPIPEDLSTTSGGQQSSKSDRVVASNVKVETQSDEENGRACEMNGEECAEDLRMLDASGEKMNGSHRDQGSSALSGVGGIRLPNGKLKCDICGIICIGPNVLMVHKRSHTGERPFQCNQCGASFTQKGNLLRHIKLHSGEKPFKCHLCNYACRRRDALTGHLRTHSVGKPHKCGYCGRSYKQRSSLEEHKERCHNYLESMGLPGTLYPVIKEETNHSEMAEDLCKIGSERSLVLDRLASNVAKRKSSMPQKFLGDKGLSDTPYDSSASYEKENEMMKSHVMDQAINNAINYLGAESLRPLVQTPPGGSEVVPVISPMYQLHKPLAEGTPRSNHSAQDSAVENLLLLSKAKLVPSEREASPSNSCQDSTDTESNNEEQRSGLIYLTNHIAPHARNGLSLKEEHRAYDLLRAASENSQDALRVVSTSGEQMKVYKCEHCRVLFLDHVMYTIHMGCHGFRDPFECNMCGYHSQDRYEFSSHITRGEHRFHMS
T3 sequence (Q96SW2 whole entry): as the sequence (Q96SW2 whole entry) above
T3 sequence (Q16531 whole entry partner): as the sequence (Q16531 whole entry partner) above

KMS11 cells = test: Cell growth inhibition assay in KMS11 cells; format: cell-based, Human; conditions: 2.5 μM, 8 days
H929 cells = test: Cell growth inhibition assay in H929 cells; format: cell-based, Human; conditions: 2.5 μM, 8 days
IKZF1 [7] = biological target: T3, IKZF1; test: Western blotting of IKZF1 protein level in KMS11 cells; format: cell-based; conditions: 2.5 μM, 72 h
GSPT1 [8] = test: Western blotting of GSPT1 protein level in H929 cells; format: cell-based, Human; conditions: 2.5 μM, 72 h
GSPT1 [9] = test: Western blotting of GSPT1 protein level in KMS11 cells; format: cell-based, Human; conditions: 2.5 μM, 72 h
IKZF3 [10] = biological target: T2, IKZF3; test: Western blotting of IKZF3 protein level in H929 cells; format: cell-based; conditions: 2.5 μM, 72 h
IKZF3 [11] = biological target: T2, IKZF3; test: Western blotting of IKZF3 protein level in KMS11 cells; format: cell-based; conditions: 2.5 μM, 72 h
NSD2-PWWP1 domain = biological target: T4, NSD2-PWWP1 domain (Homo sapiens, UniProt O96028); test: Isothermal titration calorimetry; conditions: ITC, inverse titration, 50 mM Tris-HCl pH 6.8, 25 °C; mean ± SD from two independent experiments
T4 sequence (O96028 208-369): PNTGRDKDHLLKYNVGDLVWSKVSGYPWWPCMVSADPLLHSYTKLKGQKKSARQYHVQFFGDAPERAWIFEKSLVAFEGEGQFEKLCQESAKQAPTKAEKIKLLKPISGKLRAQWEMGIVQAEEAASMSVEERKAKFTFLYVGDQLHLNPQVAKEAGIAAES

Structure (SMILES) | NSD2 degradation (NSD2 [1]; SI Figure S1B) | NSD2 degradation (NSD2 [2]; SI Figure S1B) | NSD2 degradation (NSD2 [3]; 2.5 μM) | NSD2 degradation (NSD2 [3]; 10 μM) | NSD2 degradation (NSD2 [3]; 0.1 and 0.5 μM) | NSD2 protein level (NSD2 [3]; 2.5 and 10 μM, 48 h, Figure 2) | IKZF3 degradation (IKZF3 [4]) | GSPT1 degradation (GSPT1 [5]) | IKZF1 protein level (IKZF1 [6]) | NSD2 degradation (NSD2 [1]; 2.5 μM, 72 h) | Cell growth inhibition (KMS11 cells) | Cell growth inhibition (H929 cells) | NSD2 degradation (NSD2 [2]; 2.5 μM, 72 h) | IKZF1 protein level (IKZF1 [7]) | GSPT1 degradation (GSPT1 [8]) | GSPT1 degradation (GSPT1 [9]) | IKZF3 protein level (IKZF3 [10]) | IKZF3 protein level (IKZF3 [11]) | Kd (NSD2-PWWP1 domain)
Cc1ncsc1-c1ccc(CNC(=O)[C@@H]2C[C@@H](O)CN2C(=O)[C@@H](NC(=O)CCOCCOCCNC(=O)c2ccc(NC(=O)c3ccc(CN(C(=O)c4ccc5c(c4)OCC(=O)N5)C4CC4)cc3)cc2)C(C)(C)C)cc1 [Compound 1, N-Cyclopropyl-N-(4-((4-((2-(2-(3-(((S)-1-((2S,4R)-4-hydroxy-2-((4-(4-methylthiazol-5-yl)benzyl)carbamoyl)pyrrolidin-1-yl)-3,3-dimethyl-1-oxobutan-2-yl)amino)-3-oxopropoxy)ethoxy)ethyl)-carbamoyl)phenyl)carbamoyl)benzyl)-3-oxo-3,4-dihydro-2H-benzo[b][1,4]oxazine-7-carboxamide] | ineffective in degrading NSD2 | ineffective in degrading NSD2 | confirmed the NSD2 degradation effect | hook affect | did not induce NSD2 degradation | clearly reduced the NSD2 protein level with a slight hook effect at 10μM | did not degrade GSPT1 or IKZF3 | did not degrade GSPT1 or IKZF3 | – | – | – | – | – | – | – | – | – | – | –
CN1C(=O)CCC(N2C(=O)c3cccc(NCC(=O)NCCCOc4ccc(NC(=O)c5ccc(CN(C(=O)c6ccc7c(c6)OCC(=O)N7)C6CC6)cc5)nc4)c3C2=O)C1=O (stereo not shown) [Compound 17, N-Cydopropyl-N-(4-((5-(3-(2-((2-(1-methyl-2,6-dioxopiperidin-3-yl)-1,3-dioxoisoindolin-4-yl)amino)acetamido)propoxy)pyridin-2-yl)carbamoyl)benzyl)-3-oxo-3,4-dihydro-2H-benzo[b][1,4]oxazine-7-carboxamide] | – | – | – | – | – | – | – | – | did not display any degradation effect | did not induce obvious NSD2 degradation | showed little effect on cell growth inhibition | showed little effect on cell growth inhibition | did not induce obvious NSD2 degradation | did not display any degradation effect | did not degrade GSPT1 | did not degrade GSPT1 | did not display any degradation effect | did not display any degradation effect | –
CC(C)N(Cc1ccc(C(=O)Nc2ccc(OCCCNC(=O)CNc3cccc4c3C(=O)N(C3CCC(=O)NC3=O)C4=O)cn2)cc1)C(=O)c1ccc2c(c1)OCC(=O)N2 (stereo not shown) [Compound 18, N-(4-((5-(3-(2-((2-(2,6-Dioxopiperidin-3-yl)-1,3-dioxoisoindolin-4-yl)amino)acetamido)propoxy)pyridin-2-yl)carbamoyl)benzyl)-N-isopropyl-3-oxo-3,4-dihydro-2H-benzo[b][1,4]oxazine-7-carboxamide] | – | – | – | – | – | – | – | – | clearly reduced the IKZF1 protein level | did not induce obvious NSD2 degradation | displayed some growth inhibition | displayed some growth inhibition | did not induce obvious NSD2 degradation | clearly reduced the IKZF1 protein level | did not degrade GSPT1 | did not degrade GSPT1 | – | – | did not show any appreciable binding
O=C1COc2cc(C(=O)N(Cc3ccc(C(=O)Nc4ccncn4)cc3)C3CC3)ccc2N1 [UNC6934, reference compound] | – | – | – | – | – | – | – | – | did not display any degradation effect | – | – | – | – | did not display any degradation effect | – | – | did not display any degradation effect | did not display any degradation effect | –

From PMC9378504 (Journal of medicinal chemistry, 2022)
